Read-outs that look alike come from different tables or passages of the source.
Key:
[1] = test system: MCF7 breast cancer cell lines; experiment: Cell viability analysis, WST-8 assay, MCF7; conditions: for viability at 1.1 µM: read-out: Cell viability (%) WST-8, MCF7, footnote d: concentration 1.1 µM, 72 hours; for viability at 1 µM: read-out: Cell viability (%) WST-8, MCF7 (1 µM), compound 1 µM, 72 hours; for viability at 1.25 µM: read-out: Cell viability (%) WST-8, MCF7, footnote a: concentration 1.25 µM, 72 hours
Method: (§1) MCF7 breast cancer cell lines and MCF10A normal breast cancer cell lines were treated with serial dilutions of the compounds of the present invention ranging from 1 µM to 15.63 nM for 72 hours. Cell viability was measured by the WST-8 assay (Cyto XTM cell viability assay kit; LPS solution, Daejeon, Korea) according to the manufacturer's instructions.

in vitro = conditions: human
Method: as §1

[2] = biological target: T1, Recombinant GST-TAG-MASTL (Homo sapiens, UniProt Q96GX5); experiment: HTRF-based kinase assay (HTRF KinEASE assay kit); assay type: biochemical; conditions: for activity at 1 µM: read-out: MASTL activity (%) HTRF (1 µM); for activity at 10 µM: footnote b: concentration 10 µM
T1 construct: GST; purchased Thermo Fisher Scientific
T1 sequence (Q96GX5 1-879): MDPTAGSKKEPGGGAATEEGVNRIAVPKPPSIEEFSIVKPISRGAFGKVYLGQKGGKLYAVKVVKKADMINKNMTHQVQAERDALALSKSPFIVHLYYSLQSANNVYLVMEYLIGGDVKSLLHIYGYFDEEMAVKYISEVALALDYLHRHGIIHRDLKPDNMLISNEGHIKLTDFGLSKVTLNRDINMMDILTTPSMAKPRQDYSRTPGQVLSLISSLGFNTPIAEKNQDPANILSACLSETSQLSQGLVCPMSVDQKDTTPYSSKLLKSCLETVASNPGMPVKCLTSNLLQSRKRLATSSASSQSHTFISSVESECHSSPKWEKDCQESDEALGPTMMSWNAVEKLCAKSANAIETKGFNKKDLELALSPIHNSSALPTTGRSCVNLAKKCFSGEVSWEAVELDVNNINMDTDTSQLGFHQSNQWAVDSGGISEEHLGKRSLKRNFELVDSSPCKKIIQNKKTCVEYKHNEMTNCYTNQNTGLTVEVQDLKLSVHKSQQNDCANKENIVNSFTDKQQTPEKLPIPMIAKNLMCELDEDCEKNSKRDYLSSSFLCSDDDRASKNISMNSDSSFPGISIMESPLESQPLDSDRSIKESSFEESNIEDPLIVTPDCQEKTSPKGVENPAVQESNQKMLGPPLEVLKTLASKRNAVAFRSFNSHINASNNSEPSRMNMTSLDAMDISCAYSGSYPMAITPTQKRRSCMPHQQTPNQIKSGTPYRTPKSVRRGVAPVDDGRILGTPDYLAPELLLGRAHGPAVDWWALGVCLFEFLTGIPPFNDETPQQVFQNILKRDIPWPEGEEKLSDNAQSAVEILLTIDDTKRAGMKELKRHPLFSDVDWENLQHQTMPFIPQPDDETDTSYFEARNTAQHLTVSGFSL
Description: Recombinant GST-TAG-MASTL (Thermo Fisher Scientific, MA, USA) was used for HTRF-based kinase assays. The HTRF KinEASE assay kit (CisBio, MA, USA) was used according to the manufacturer's instructions.

pENSA = pENSA level by immunofluorescence (described method: in vitro kinase analysis with GST-tag-MASTL and His-tag-ENSA); assay type: cell-based
Method: Two recombinant GST-tag-MASTL (Thermo Fisher Scientific) and His-tag-ENSA (Sino Biological Inc., Beijing, China) were used for in vitro kinase analysis. In vitro kinase analysis was performed as described in the literature [Front Oncol 2020, 10, 571601, 39-202021-10-20doi:10.3389/fonc.2020.571601.].
Phosphorylated ENSA (pENSA), which is activated by phosphorylation by MASTL, can be utilized as a biomarker as it is expected that its activity will be inhibited along with the inhibition of MASTL. In the cell viability assay, MCF7 refers to a breast cancer cell line, and MCF10A refers to a normal breast […] cell line.

[3] = read-out: MASTL activity (%) HTRF

Cc1nn(C)c(C)c1Nc1nc(Nc2ccc(CC#N)cc2)nc2ccccc12 [3c, 2-(4-((4-((1,3,5-trimethyl-1G-pyrazol-4-yl)amino)quinazolin-2-yl)amino)phenyl)acetonitrile]
viability at 1.1 µM ([1]; Homo sapiens, MCF7, 72 h): 110% | viability at 1.1 µM (in vitro; mcf10a cells): 115% | activity at 1 µM [2]: 123%

CNC(=O)c1ccc(Nc2nc(Nc3cc(C4CC4)[nH]n3)c3ccccc3n2)cc1 [4ae, 4-((4-((5-cyclopropyl-1G-pyrazol-3-yl)amino)quinazolin-2-yl)amino)-M-methylbenzamide]
viability at 1 µM ([1]; Homo sapiens, MCF7, 72 h): 72.8% | viability at 1 µM (in vitro; mcf10a cells): 70.5% | activity at 1 µM ([2]; compound 1 µM): 41.7%

CCNC(=O)c1ccc(Nc2nc(Nc3cc(C4CC4)[nH]n3)c3ccccc3n2)cc1 [4af, 4-((4-((5-cyclopropyl-1G-pyrazol-3-yl)amino)quinazolin-2-yl)amino)-M-ethylbenzamide]
viability at 1 µM ([1]; Homo sapiens, MCF7, 72 h): 66.6% | viability at 1 µM (in vitro; mcf10a cells): 66.5% | activity at 1 µM ([2]; compound 1 µM): 49.6%

CC(C)(C)OC(=O)N1CC2C(C1)C2Nc1nc(Nc2cc(C3CC3)[nH]n2)c2ccccc2n1 (stereo not drawn) [4ag, sdqs-butyl 6-((4-((5-cyclopropyl-1G-pyrazol-3-yl)amino)quinazolin-2-yl)amino)-3-azabicyclo[3.1.0]hexane-3-carboxylate]
viability at 1 µM ([1]; Homo sapiens, MCF7, 72 h): 56.4% | viability at 1 µM (in vitro; mcf10a cells): 74.5% | activity at 1 µM ([2]; compound 1 µM): 67.1%

Cc1n[nH]c(C)c1Nc1nc(Nc2ccc(CC#N)cc2)nc2ccccc12 [compound 3d, 2-(4-((4-((3,5-dimethyl-1G-pyrazol-4-yl)amino)quinazolin-2-yl)amino)phenyl)acetonitrile]
viability at 1.1 µM ([1]; Homo sapiens, MCF7, 72 h): 132% | viability at 1.1 µM (in vitro; mcf10a cells): 101% | activity at 1 µM [2]: 93.7%

N#CCc1ccc(Nc2nc(Nc3cn[nH]c3)c3ccccc3n2)cc1 [compound 3f, 2-(4-((4-((1G-pyrazol-4-yl)amino)quinazolin-2-yl)amino)phenyl)acetonitrile]
viability at 1.1 µM ([1]; Homo sapiens, MCF7, 72 h): 117% | viability at 1.1 µM (in vitro; mcf10a cells): 98.3% | activity at 1 µM [2]: 92.5%

CC(C)S(=O)(=O)c1ccccc1Nc1nc(Nc2ccc(CC#N)cc2)nc2ccccc12 [compound 3g, 2-(4-((4-((2-(isopropylsulfonyl)phenyl)amino)quinazolin-2-yl)amino)phenyl)acetonitrile]
viability at 1.1 µM ([1]; Homo sapiens, MCF7, 72 h): 109% | viability at 1.1 µM (in vitro): 99.7% | activity at 3.3 µM ([2]; footnote c: concentration 3.3 µM): 127%

N#CCc1ccc(Nc2nc(Nc3ccc(Cl)nn3)c3ccccc3n2)cc1 [compound 3i, 2-(4-((4-((6-chloropyridazin-3-yl)amino)quinazolin-2-yl)amino)phenyl)acetonitrile]
viability at 1 µM ([1]; Homo sapiens, MCF7, 72 h): 95.6% | viability at 1 µM (in vitro): 51.8% | activity at 1 µM ([2]; compound 1 µM): 126%

N#CCc1ccc(Nc2nc(NC3=NC(=O)CS3)c3ccccc3n2)cc1 [compound 3j, 2-(4-((4-((4-oxo-4,5-dihydrothiazol-2-yl)amino)quinazolin-2-yl)amino)phenyl)acetonitrile]
viability at 1 µM ([1]; Homo sapiens, MCF7, 72 h): 108% | viability at 1 µM (in vitro): 84.2% | activity at 1 µM ([2]; compound 1 µM): 92.5%

N#CCc1ccc(Nc2nc(Nc3ccccc3F)c3ccccc3n2)cc1 [compound 3k, 2-(4-((4-((2-fluorophenyl)amino)quinazolin-2-yl)amino)phenyl)acetonitrile]
viability at 1 µM ([1]; Homo sapiens, MCF7, 72 h): 120% | viability at 1 µM (in vitro): 96.6% | activity at 1 µM ([2]; compound 1 µM): 99.1%

N#CCc1ccc(Nc2nc(Nc3nnc(C4CC4)s3)c3ccccc3n2)cc1 [compound 3l, 2-(4-((4-((5-cyclopropyl-1,3,4-thiadiazol-2-yl)amino)quinazolin-2-yl)amino)phenyl)acetonitrile]
viability at 1 µM ([1]; Homo sapiens, MCF7, 72 h): 80.5% | viability at 1 µM (in vitro): 104% | activity at 1 µM ([2]; compound 1 µM): 114%

N#CCc1ccc(Nc2nc(Nc3cccc(N)c3)c3ccccc3n2)cc1 [compound 3n, 2-(4-((4-((3-aminophenyl)amino)quinazolin-2-yl)amino)phenyl)acetonitrile]
viability at 1 µM ([1]; Homo sapiens, MCF7, 72 h): 117% | viability at 1 µM (in vitro): 95.2% | activity at 1 µM ([2]; compound 1 µM): 125%

CNc1nc(Nc2cc(C3CC3)[nH]n2)c2ccccc2n1 [compound 4cb, N^4-(5-cyclopropyl-1H-pyrazol-3-yl)-N^2-methylquinazoline-2,4-diamine]
viability at 1.25 µM ([1]; Homo sapiens, MCF7, 72 h): 87.5% | viability at 1.25 µM (in vitro): 102% | activity at 10 µM [2, 3]: 53.1%

CC(C)(C)OC(=O)N1CC2C(C1)C2Nc1nc(Nc2cc(C3CC3)[nH]n2)c2ccccc2n1 (stereo not drawn) [compound 4cg, tert-butyl 6-((4-((5-cyclopropyl-1H-pyrazol-3-yl)amino)quinazolin-2-yl)amino)-3-azabicyclo[3.1.0]hexane-3-carboxylate]
Cell viability (%) WST-8, MCF7 (1 µM) ([1]; compound 1 µM, 72 hours, 1 µM): 73.6% | viability at 1 µM (in vitro): 117% | MASTL activity (%) HTRF (1 µM) ([2]; compound 1 µM, 1 µM): 76.4%

N#Cc1ccc(CNc2nc(Nc3cc(C4CC4)[nH]n3)c3ccccc3n2)cc1 [compound 4ch, 4-(((4-((5-cyclopropyl-1G-pyrazol-3-yl)amino)quinazolin-2-yl)amino)methyl)benzonitrile]
viability at 1 µM ([1]; Homo sapiens, MCF7, 72 h): 73.6% | viability at 1 µM (in vitro; mcf10a cells): 32% | activity at 1 µM [2]: 43%

N#Cc1ccc(Nc2nc(Nc3cc(C4CC4)[nH]n3)c3ccccc3n2)cc1 [compound 4d, 4-((4-((5-cyclopropyl-1G-pyrazol-3-yl)amino)quinazolin-2-yl)amino)benzonitrile]
viability at 1.25 µM ([1]; Homo sapiens, MCF7, 72 h): 5.6% | selectivity for breast cancer cells over normal cells in the cell viability assay ([1]; MCF7 versus MCF10A): selectively inhibit only breast cancer cells | viability at 1.25 µM (in vitro; mcf10a cells): 3.2% | IC50 [2]: 625 nM | activity at 1.25 µM [2, 3]: 32.6%

CC(C)NC(=O)N1CC2CC1CN2c1nc(Nc2cc(C3CC3)[nH]n2)c2ccccc2n1 (stereo not drawn) [compound 15b, 5-(4-((5-cyclopropyl-1G-pyrazol-3-yl)amino)quinazolin-2-yl)-M-isopropyl-2,5-diazabicyclo[2.2.1]heptane-2-carboxamide]
viability at 1 µM ([1]; Homo sapiens, MCF7, 72 h): 75.3% | viability at 1 µM (in vitro; mcf10a cells): 77.2%

O=S(=O)(c1ccc2ccccc2c1)N1CC2CC1CN2c1nc(Nc2cc(C3CC3)[nH]n2)c2ccccc2n1 (stereo not drawn) [compound 15y, M-(5-cyclopropyl-1G-pyrazol-3-yl)-2-(5-(naphthalen-2-ylsulfonyl)-2,5-diazabicyclo[2.2.1]heptan-2-yl)quinazolin-4-amine]
pENSA (%) Immunofluor ecense (pENSA; footnote b: concentration 10 µM): 35.5^b % | IC50 (pENSA; unit µM, read-out: IC50 pENSA): 6.9 µM | viability at 10 µM ([1]; Homo sapiens, MCF7, 72 h, read-out: Cell viability (%) WST-8, MCF7, footnote b: concentration 10 µM, 72 hours): 64.1% | IC50 ([1]; Homo sapiens, MCF7, 72 h, read-out: IC50 Cell viability (MCF7)): 8.2 µM | IC50 ([2]; HTRF, read-out: IC50(nM) MASTL activity): 928 nM | activity at 10 µM [2, 3]: 18.5%

Cc1cc(Nc2nc(N3CC4CC3CN4C(=O)NC(C)C)nc3ccccc23)n[nH]1 (stereo not drawn) [compound 27a, M-isopropyl-5-(4-((5-methyl-1G-pyrazol-3-yl)amino)quinazolin-2-yl)-2,5-diazabicyclo[2.2.1]heptane-2-carboxamide]
viability at 1 µM ([1]; Homo sapiens, MCF7, 72 h): 95.6% | viability at 1 µM (in vitro; mcf10a cells): 90.7%

Cc1cc(Nc2nc(N3CC4CC3CN4C(=O)Nc3ccccc3)nc3ccccc23)n[nH]1 (stereo not drawn) [compound 27b, 5-(4-((5-methyl-1G-pyrazol-3-yl)amino)quinazolin-2-yl)-M-phenyl-2,5-diazabicyclo[2.2.1]heptane-2-carboxamide]
viability at 1 µM ([1]; Homo sapiens, MCF7, 72 h): 83.2% | viability at 1 µM (in vitro; mcf10a cells): 36.1%

CC(C)NC(=O)N1CC2CC1CN2c1nc(Nc2cn[nH]c2)c2ccccc2n1 (stereo not drawn) [compound 28a, 5-(4-((1G-pyrazol-4-yl)amino)quinazolin-2-yl)-M-isopropyl-2,5-diazabicyclo[2.2.1]heptane-2-carboxamide]
viability at 1 µM ([1]; Homo sapiens, MCF7, 72 h): 99% | viability at 1.25 µM (in vitro; mcf10a cells): 93.9%

O=C(Nc1ccccc1)N1CC2CC1CN2c1nc(Nc2cn[nH]c2)c2ccccc2n1 (stereo not drawn) [compound 28b, 5-(4-((1G-pyrazol-4-yl)amino)quinazolin-2-yl)-M-phenyl-2,5-diazabicyclo[2.2.1]heptane-2-carboxamide]
viability at 1 µM ([1]; Homo sapiens, MCF7, 72 h): 91.2% | viability at 1 µM (in vitro; mcf10a cells): 37%
